Literature values as cited in patent US20100285098A1, “ADHERING TROCHES WITH SANTACID FOR TREATMENT OF THROAT ESOPHAGUS AND STOMACH” (priority 2007, published 2010).

SMILES: OC[C@@H](O)[C@H](O)[C@@H](O)CO [xylitol]
- suppression of Helicobacter pylori (Helicobacter pylori): suppressed
- suppression of Streptococcus pyogenes (Streptococcus pyogenes): suppressed

SMILES: CC(=O)N[C@H]1[C@H]([C@H](O)[C@H](O)CO)OC(C(=O)O)=C[C@@H]1N=C(N)N [Zanamavir, zanamavir]
- absorbed into the blood (delivered to the stomach such as by capsule): 2%
- inhaled dose systemically absorbed (delivered topically by dry powder inhaler): 4-17%
- excretion (in vivo): excreted in the urine without change
- metabolism by the body (in vivo): not metabolized
- side effects (other than those caused by the delivery vehicle): Rare side effects
